Experimental data published in publication PMC7413254 (Nature Communications, 2020).
Like-named read-outs stand apart in the source and are kept apart here.

Key:
PfCRT = test: Test of solutes as potential co-substrates for influx of VF-6 via PfCRT into the oocyte; assay type: cell-based, Plasmodium falciparum; set-up: key: X: Compounds that have been tested as potential co-substrates but are not required for influx of VF-6 via PfCRT into the oocyte; settings: X = tested
PfCRT^Dd2 = PfCRT^Dd2 (Plasmodium falciparum, UniProt Q9N623, A220S/I356T/K76T/M74I/N326S/N75E/Q271E/R371I); test: [3H]CQ uptake into Xenopus oocytes, cis-inhibition by unlabelled solute; assay type: cell-based
Sequence of PfCRT^Dd2 (Q9N623 whole entry A220S/I356T/K76T/M74I/N326S/N75E/Q271E/R371I): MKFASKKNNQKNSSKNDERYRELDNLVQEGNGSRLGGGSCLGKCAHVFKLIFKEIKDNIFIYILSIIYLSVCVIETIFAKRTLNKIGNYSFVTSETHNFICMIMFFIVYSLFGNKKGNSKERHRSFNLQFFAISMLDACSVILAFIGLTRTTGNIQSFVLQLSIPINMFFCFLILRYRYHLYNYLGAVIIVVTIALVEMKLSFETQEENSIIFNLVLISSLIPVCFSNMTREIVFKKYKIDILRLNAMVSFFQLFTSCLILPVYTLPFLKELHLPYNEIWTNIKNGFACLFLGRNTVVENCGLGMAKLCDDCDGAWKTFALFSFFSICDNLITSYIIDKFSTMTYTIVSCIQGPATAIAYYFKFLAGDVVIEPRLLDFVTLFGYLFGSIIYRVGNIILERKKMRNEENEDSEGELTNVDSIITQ
Outline: (§1)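 Washed oocytes (ten per treatment) were exposed to label in pH 5.5 ND96 for 1.5 h at 27.5 °C. Buffer was then removed, cells rinsed in ice-cold ND96, lysed in SDS and counted.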

PfCRT^Ecu1110 = PfCRT^Ecu1110 (Plasmodium falciparum, UniProt Q9N623, A220S/I356L/K76T/N326D); test: as above; assay type: cell-based
Sequence of PfCRT^Ecu1110 (Q9N623 whole entry A220S/I356L/K76T/N326D): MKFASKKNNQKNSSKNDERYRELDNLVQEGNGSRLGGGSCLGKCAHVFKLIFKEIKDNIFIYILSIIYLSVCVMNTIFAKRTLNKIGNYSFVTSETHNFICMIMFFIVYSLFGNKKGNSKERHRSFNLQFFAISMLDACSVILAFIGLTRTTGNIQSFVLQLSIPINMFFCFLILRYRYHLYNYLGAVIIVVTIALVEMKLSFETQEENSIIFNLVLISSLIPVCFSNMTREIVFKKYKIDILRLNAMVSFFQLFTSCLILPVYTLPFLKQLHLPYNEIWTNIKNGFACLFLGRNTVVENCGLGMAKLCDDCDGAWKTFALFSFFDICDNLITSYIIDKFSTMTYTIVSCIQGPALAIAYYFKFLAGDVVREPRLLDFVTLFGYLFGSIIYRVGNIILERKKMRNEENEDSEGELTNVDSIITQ
Outline: as §1

non-expressing oocytes = test: cells; assay type: cell-based, Xenopus laevis; settings: Xenopus laevis, total [3H]CQ transport; for inhibition at 500 µM: [test solute] = 0.5 mM; for inhibition at 1000 µM: [test solute] = 1 mM; for inhibition at 2000 µM: [test solute] = 2 mM
Outline: as §1

PfNT1 = target: T1, PfNT1 (Plasmodium falciparum, UniProt Q8IDM6); test: cell-based; assay type: cell-based
T1 construct: expressed in transfected cells; host or cells: Xenopus laevis oocytes (stage V-VI), cRNA-injected
T1 sequence (Q8IDM6 whole entry): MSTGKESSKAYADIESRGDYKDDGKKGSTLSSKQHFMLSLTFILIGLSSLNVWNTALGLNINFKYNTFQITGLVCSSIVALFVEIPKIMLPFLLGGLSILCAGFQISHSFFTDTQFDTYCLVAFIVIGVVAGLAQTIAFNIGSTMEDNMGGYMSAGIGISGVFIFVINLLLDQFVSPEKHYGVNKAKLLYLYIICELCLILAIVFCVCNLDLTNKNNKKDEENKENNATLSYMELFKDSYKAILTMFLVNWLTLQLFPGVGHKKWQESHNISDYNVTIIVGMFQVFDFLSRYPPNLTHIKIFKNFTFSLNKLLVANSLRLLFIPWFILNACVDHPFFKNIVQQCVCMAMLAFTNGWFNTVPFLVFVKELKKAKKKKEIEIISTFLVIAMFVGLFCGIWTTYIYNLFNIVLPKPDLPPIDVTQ
Outline: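 Transport measured in Xenopus oocytes expressing the transporters, 1.5 h at 27.5 °C in ND96 pH 5.5 unless noted. For trans-stimulation, VF-6 injected in 25 nL ND96 at pH 5.0–7.0 or Na^+-free (choline) buffer; intracellular levels based on ~400 nL oocyte volume. Ten oocytes per treatment, ≥4 experiments.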

[1] = read-out: PfCRT-mediated [3H]CQ transport, cis-inhibition (% PfCRTDd2 control)
[2] = read-out: Uptake of [3H]CQ (% PfCRTDd2 control), cis-inhibition
[3] = read-out: Uptake of [3H]CQ (% PfCRTDd2 control), cis-inhibition, PfCRTDd2, SEM
[4] = read-out: [3H]CQ transport (% PfCRTDd2 control), cis-inhibition, PfCRTDd2, SEM
[5] = read-out: PfCRT-mediated [3H]CQ transport, cis-inhibition (% PfCRTEcu1110 control)
[6] = read-out: Uptake of [3H]CQ (% PfCRTDd2 control), cis-inhibition, PfCRTEcu1110, SEM
[7] = read-out: Uptake of [3H]CQ (% PfCRTEcu1110 control), cis-inhibition
[8] = read-out: [3H]CQ transport (% PfCRTEcu1110 control), cis-inhibition, PfCRTEcu1110, SEM
[9] = Oocyte, mean ± SEM, SEM, read-out: Uptake of [3H]CQ (% PfCRTDd2 control), cis-inhibition, non-expressing oocytes
[10] = non-expressing oocytes, normalised to the oocyte type control, read-out: Uptake of [3H]CQ (% non-expressing oocyte control), cis-inhibition

With `CC(C)[C@H](N)C(=O)O` [L-valine] the “Tested as potential co-substrate but not required for influx of VF-6 via PfCRT into the oocyte” value (PfCRT) was “X”, the inhibition at 500 µM (PfCRT^Dd2; [1]) was 98 ± 3.6% and the inhibition at 1000 µM (PfCRT^Dd2; [1]) was 98 ± 4.6%. It also gave an inhibition at 2000 µM (PfCRT^Dd2; [1]) of 93 ± 4.1%, an inhibition at 500 µM (PfCRT^Dd2; [2]) of 100 ± 2.6% and an inhibition at 1000 µM (PfCRT^Dd2; [2]) of 100 ± 2.2%. It also gave an inhibition at 500 µM (PfCRT^Dd2; [3]) of 100 ± 2.6%, an inhibition at 1000 µM (PfCRT^Dd2; [3]) of 100 ± 2.2% and an inhibition at 2000 µM (PfCRT^Dd2; [3]) of 95 ± 1.4%. The inhibition at 500 µM (PfCRT^Dd2; [4]) was 98 ± 3.6%, the inhibition at 1000 µM (PfCRT^Dd2; [4]) was 98 ± 4.6% and the inhibition at 500 µM (PfCRT^Ecu1110; [5]) was 98 ± 2.5%. It also gave an inhibition at 1000 µM (PfCRT^Ecu1110; [5]) of 95 ± 2.6%, an inhibition at 2000 µM (PfCRT^Ecu1110; [5]) of 94 ± 2.5% and an inhibition at 500 µM (PfCRT^Ecu1110; [6]) of 33 ± 1%. The inhibition at 1000 µM (PfCRT^Ecu1110; [6]) was 32 ± 1.3%, the inhibition at 2000 µM (PfCRT^Ecu1110; [6]) was 31 ± 1.6% and the inhibition at 500 µM (PfCRT^Ecu1110; [7]) was 100 ± 1.5%. For the same molecule, the inhibition at 1000 µM (PfCRT^Ecu1110; [7]) was 97 ± 1.7%, the inhibition at 2000 µM (PfCRT^Ecu1110; [7]) was 96 ± 1.5% and the inhibition at 500 µM (PfCRT^Ecu1110; [8]) was 30 ± 0.6%. It also gave an inhibition at 1000 µM (PfCRT^Ecu1110; [8]) of 29 ± 1.4%, an inhibition at 2000 µM (PfCRT^Ecu1110; [8]) of 28 ± 0.4% and an inhibition at 500 µM (non-expressing oocytes; [9]) of 2.7 ± 0.05%. For the same molecule, the inhibition at 1000 µM (non-expressing oocytes; [9]) was 2.5 ± 0.04%, the inhibition at 2000 µM (non-expressing oocytes; [9]) was 2.8 ± 0.07% and the inhibition at 500 µM (non-expressing oocytes; [10]) was 100 ± 4.8%. The inhibition at 1000 µM (non-expressing oocytes; [10]) was 101 ± 6.2%, the inhibition at 2000 µM (non-expressing oocytes; [10]) was 99 ± 6.2% and the activity at 5000 µM (PfNT1; PfNT1 oocytes, [test solute]i = 5 mM, total [3H]CQ transport, normalised to the oocyte type control, read-out: Uptake of [3H]CQ (% PfNT1 control), trans-stimulation) was 99 ± 2.9%. It also gave an activity at 45000 µM (PfNT1; […], SEM, read-out: Uptake of [3H]CQ (% PfCRTDd2 control), trans-stimulation, PfNT1) of 2.9 ± 0.04%.
